Here are results for nine molecules from patent US11401271B2, “Fused heterocyclic compound, pyrazole-ring-containing fused heterocyclic compound, agricultural composition containing thereof, and method of using the composition” (SOUTH CHINA AGRICULTURAL UNIVERSITY, priority 2017, dated 2022).

One may read the mortality as the share of the test organisms that died.

Holding throughout (format): in vivo
Data set [1] concerns Plutella xylostella. Put plainly: whole plant or invertebrate. To be noted: Plutella xylostella, read-out: Plutella xylostella Mortality (%) 500 ppm. The gist of the method:
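Cabbage leaf discs dipped 5 s in compound at 500 ppm (0.05% Tween-80 aqueous), air-dried, fed to about 35 2nd-instar larvae at 28° C., triplicate. Dead larvae counted after 24 h; mortality (%) corrected against Tween-80 control.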

The subject of data set [2] is Solenopsis invicta. Put plainly: whole plant or invertebrate. To be noted: Solenopsis invicta, water test tube poison-feeding. The gist of the method:
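Fire ants fed compound by water test-tube poison-feeding at 100 ppm in aqueous 0.05% Tween-80/5% honey (from 10 g/L DMSO stock), kept at 25 °C. Live and dead ants counted at 24 and 72 h; mortality (%) calculated relative to live ants in the untreated control.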

The test system of data set [3] is Apis cernan. Put plainly: Toxicity test on adult worker bees of Apis cernan, small beaker method. To be noted: 500 ppm, 48 hours. The gist of the method: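 Same-size adult Apis cernan workers, collected the test morning, exposed in groups of 15 to cotton soaked with 500 ppm test liquid (small beaker method). Kept sealed in a dark climate box; live and dead bees counted after 48 h.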

Data set [4] has as its system Aphis craccivora. Put plainly: whole plant or invertebrate. To be noted: Aphis craccivora, 24 h, read-out: Aphis craccivora Mortality (%) 500 ppm. The gist of the method: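 Wingless adults feeding on bean sprouts were dipped with the sprouts for 5 s in 500 ppm compound in aqueous 0.05% Tween-80, air-dried, then held at 23° C. Dead aphids counted after 24 h, triplicate, with 0.05% Tween-80 as control. Mortality (%) = (control live − treated live)/control live × 100.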

Data set [5] relates to Spodoptera exigua. Put plainly: whole plant or invertebrate. To be noted: Spodoptera exigua, 24 h, read-out: Spodoptera exigua Mortality (%) 500 ppm. In short, it runs like this:
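Cabbage leaf discs dipped 5 s in 500 ppm compound (0.05% Tween-80 aqueous), air-dried, fed to about 35 2nd-instar larvae at 28° C, three replicates. Deaths counted at 24 h; mortality corrected against Tween-80 control.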

The subject of data set [6] is Bombyx mori L. Put plainly: Toxicity test on 2nd-instar larvae of Bombyx mori L., leaf immersion feeding method. To be noted: 1000 ppm, 24 hours. In short, it runs like this: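 Second-instar silkworm larvae (~35 per vessel, 3 replicates) fed mulberry leaves dipped 5 s in 1000 ppm compound (0.05% Tween-80; DMSO stock diluted), held at 25 °C. Deaths counted after 24 hours; mortality % corrected against Tween-80 control survivors.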

[7] abbreviates: 24 h, read-out: Solenopsis invicta Mortality (%) 100 ppm 24 h, 100 ppm, 24 h.
The mark [8] stands for this setting: 72 h, read-out: Solenopsis invicta Mortality (%) 100 ppm 72 h, 100 ppm, 72 h.

Like-named read-outs stand apart in the source and are kept apart here.

For `C=CC1(CC#N)Nc2c([S+]([O-])C(F)(F)F)c(C#N)nn2-c2c(Cl)cc(C(F)(F)F)cc21` (stereo not drawn) [Compound C20], the mortality at 500 ppm in data set [1], in data set [4] and in data set [5] was 100% throughout. Further, the mortality at 100 ppm is 28% in data set [2] (setting [7]) and 99% in data set [2] (setting [8]). In addition, the “Toxicity determination Apis cernan Mortality (%)” value in data set [3] stood at 10%. Moreover, in data set [6], the “Toxicity determination Bombyx mori L. Mortality (%)” value was 8%.
In the case of `CNC(=O)C1(CC(=O)OC)Nc2c([S+]([O-])C(F)(F)F)c(C#N)nn2-c2c(Cl)cc(C(F)(F)F)cc21` (stereo not drawn) [Compound C35], the mortality at 500 ppm in data set [1], in data set [4] and in data set [5] was 100% in each case. For the same molecule, the values for the mortality at 100 ppm in data set [2] (setting [7]) and in data set [2] (setting [8]) were 38% and 100%, respectively. The “Toxicity determination Apis cernan Mortality (%)” value in data set [3] is given as 4%. Moreover, in data set [6], the “Toxicity determination Bombyx mori L. Mortality (%)” value was 4%.
Take `COc1ccc(-c2cn3c(c2C(C)=O)NC(C(N)=O)(C(N)=O)c2ccc([N+](=O)[O-])cc2-3)cc1` [Compound B4]: the values for the mortality at 500 ppm in data set [1], in data set [4] and in data set [5] were 86%, 100% and 100%, respectively. Besides, the mortality at 100 ppm is 20% in data set [2] (setting [7]) and 88% in data set [2] (setting [8]). Also, the “Toxicity determination Apis cernan Mortality (%)” value in data set [3] is reported as 0%. Further, the “Toxicity determination Bombyx mori L. Mortality (%)” value in data set [6] came to 0%.
Regarding `N#Cc1cnn2c1NC(N)(CN)c1ccc(Cl)cc1-2` (stereo not drawn) [Compound A23], the mortality at 500 ppm in data set [1], in data set [4] and in data set [5] was 100% throughout. The mortality at 100 ppm in data set [2] (setting [7]) is 34%; in data set [2] (setting [8]) it was 100%. Also, the “Toxicity determination Apis cernan Mortality (%)” value in data set [3] worked out at 5%. Besides, the “Toxicity determination Bombyx mori L. Mortality (%)” value in data set [6] is 0%.
In the case of `CCOC(=O)c1c(SC)nn2c1NC(F)(C(F)(F)F)c1ccccc1-2` (stereo not drawn) [Compound A27], the mortality at 500 ppm in data set [1], in data set [4] and in data set [5] was 100% each time. In addition, the mortality at 100 ppm came to 30% in data set [2] (setting [7]) and 100% in data set [2] (setting [8]). In data set [3], the “Toxicity determination Apis cernan Mortality (%)” value is listed as 15%. Further, the “Toxicity determination Bombyx mori L. Mortality (%)” value in data set [6] was 10%.
`N#Cc1nn2c(c1[S+]([O-])C(F)(F)F)NC(CC(N)=O)(C(N)=O)c1cc(C(F)(F)F)cc(Cl)c1-2` (stereo not drawn) [Compound C38]: the mortality at 500 ppm amounted to 100% in data set [1], 100% in data set [4] and 90% in data set [5]. The mortality at 100 ppm was 25% in data set [2] (setting [7]) and 90% in data set [2] (setting [8]). Further, the “Toxicity determination Apis cernan Mortality (%)” value in data set [3] is 0%. For the same molecule, the “Toxicity determination Bombyx mori L. Mortality (%)” value in data set [6] is recorded as 4%.
With `C=CC1(CCl)Nc2c(-c3ccccc3C(F)(F)F)c(C#N)nn2-c2c(Cl)cc(C(F)(F)F)cc21` (stereo not drawn) [Compound C9], the mortality at 500 ppm in data set [1], in data set [4] and in data set [5] was 100% throughout. Moreover, the results for the mortality at 100 ppm in data set [2] (setting [7]) and in data set [2] (setting [8]) were 39% and 100%, respectively. In addition, the “Toxicity determination Apis cernan Mortality (%)” value in data set [3] is reported as 9%. The “Toxicity determination Bombyx mori L. Mortality (%)” value in data set [6] is given as 8%.
`Nc1ccc2c(c1)-n1nc(C(F)(F)F)cc1NC2(C(F)(F)F)C(F)(F)F` [Compound A10]: the mortality at 500 ppm came to 86% in data set [1], 100% in data set [4] and 100% in data set [5]. In addition, the results for the mortality at 100 ppm in data set [2] (setting [7]) and in data set [2] (setting [8]) were 20% and 87%, respectively. Also, the “Toxicity determination Apis cernan Mortality (%)” value in data set [3] came to 12%. Besides, the “Toxicity determination Bombyx mori L. Mortality (%)” value in data set [6] is given as 15%.
Turning to `C=CC1(CCl)Nc2c([S+]([O-])C(F)(F)F)c(C#N)nn2-c2c(Cl)cc(C(F)(F)F)cc21` (stereo not drawn) [Compound C13], the mortality at 500 ppm in data set [1], in data set [4] and in data set [5] was 100% in each case. Besides, the figures for the mortality at 100 ppm in data set [2] (setting [7]) and in data set [2] (setting [8]) were 32% and 100%, respectively. Also, in data set [3], the “Toxicity determination Apis cernan Mortality (%)” value came to 10%. In data set [6], the “Toxicity determination Bombyx mori L. Mortality (%)” value is on record as 12%.
